Measured values published in US20250120989A1, “BRIDGED TRICYCLIC CARBAMOYLPYRIDONE COMPOUNDS AND USES THEREOF” (priority 2023, published 2025).
≈ marks a conversion by molar mass, not a printed value.

What was measured:
HIV-1 (IIIB) = experiment: microbe, parasite or virus in culture; type: cell-based; details: Human immunodeficiency virus 1, MT4, 120 h; HIV-1 (IIIB) replication in MT-4 cells, 5 days, Cell Titer Glo; read-out: MT4 EC50
in vitro = details: human, uninfected MT-4 cells
physchem = details: FaSSIF, 23 °C, thermodynamic from solid

SMILES	EC50 (HIV-1 (IIIB)) [µM]	CC50 at 5 days (in vitro) [µM]	solubility thermodynamic at 24 h (physchem) [µg/mL]
CC1=NO[C@@]2(CC[C@H](C)N3C[C@H]2n2cc(C(=O)NCc4ccc(F)cc4F)c(=O)c(OCOC(=O)CCCOP(=O)(O)O)c2C3=O)C1 [Compound 40, (((3′S,5S,7′R)-10′-((2,4-difluorobenzyl)carbamoyl)-3,3′-dimethyl-1′,11′-dioxo-1′,4′,5′,11′-tetrahydro-3′H,4H,7′H-spiro[isoxazole-5,6′-[2,7]methanopyrido[1,2-a][1,4]diazonin]-12′-yl)oxy)methyl 4-(phosphonooxy)butanoate]	0.00126	12.6	5340 (≈ 7.83 mM)
CC[C@@H](COC(=O)OCOc1c2n(cc(C(=O)NCc3ccc(F)cc3F)c1=O)[C@@H]1CN(C2=O)[C@@H](C)CC[C@]12CC(C)=NO2)OP(=O)(O)O [Compound 66, (((3′S,5S,7′R)-10′-((2,4-difluorobenzyl)carbamoyl)-3,3′-dimethyl-1′,11′-dioxo-1′,4′,5′,11′-tetrahydro-3′H,4H,7′H-spiro[isoxazole-5,6′-[2,7]methanopyrido[1,2-a][1,4]diazonin]-12′-yl)oxy)methyl ((S)-2-(phosphonooxy)butyl) carbonate]	0.00207	12.8	4270 (≈ 5.99 mM)
CC1=NO[C@@]2(CC[C@H](C)N3C[C@H]2n2cc(C(=O)NCc4ccc(F)cc4F)c(=O)c(OCOC(=O)OCC(C)(C)COP(=O)(O)O)c2C3=O)C1 [Compound 12, (((3′S,5S,7′R)-10′-((2,4-difluorobenzyl)carbamoyl)-3,3′-dimethyl-1′,11′-dioxo-1′,4′,5′,11′-tetrahydro-3′H,4H,7′H-spiro[isoxazole-5,6′-[2,7]methanopyrido[1,2-a][1,4]diazonin]-12′-yl)oxy)methyl (2,2-dimethyl-3-(phosphonooxy)propyl) carbonate]	0.00201	14	5280 (≈ 7.27 mM)
COC1=NO[C@@]2(CC[C@H](C)N3C[C@H]2n2cc(C(=O)NCc4ccc(F)cc4F)c(=O)c(OCOC(=O)O[C@H](C)COP(=O)(O)O)c2C3=O)C1 [Compound 54, (((3′S,5S,7′R)-10′-((2,4-difluorobenzyl)carbamoyl)-3-methoxy-3′-methyl-1′,11′-dioxo-1′,4′,5′,11′-tetrahydro-3′H,4H,7′H-spiro[isoxazole-5,6′-[2,7]methanopyrido[1,2-a][1,4]diazonin]-12′-yl)oxy)methyl ((R)-1-(phosphonooxy)propan-2-yl) carbonate]	0.00432	15.5	4660 (≈ 6.51 mM)
CC[C@H](COP(=O)(O)O)OC(=O)OCOc1c2n(cc(C(=O)NCc3ccc(F)cc3F)c1=O)[C@@H]1CN(C2=O)[C@@H](C)CC[C@]12CC(C)=NO2 [Compound 25, (((3′S,5S,7′R)-10′-((2,4-difluorobenzyl)carbamoyl)-3,3′-dimethyl-1′,11′-dioxo-1′,4′,5′,11′-tetrahydro-3′H,4H,7′H-spiro[isoxazole-5,6′-[2,7]methanopyrido[1,2-a][1,4]diazonin]-12′-yl)oxy)methyl ((R)-1-(phosphonooxy)butan-2-yl) carbonate]	0.00221	13.9	5130 (≈ 7.2 mM)
COC1=NO[C@@]2(CC[C@H](C)N3C[C@H]2n2cc(C(=O)NCc4ccc(F)cc4F)c(=O)c(OCOC(=O)O[C@H](C)[C@H](C)OP(=O)(O)O)c2C3=O)C1 [Compound 60, (((3′S,5S,7′R)-10′-((2,4-difluorobenzyl)carbamoyl)-3-methoxy-3′-methyl-1′,11′-dioxo-1′,4′,5′,11′-tetrahydro-3′H,4H,7′H-spiro[isoxazole-5,6′-[2,7]methanopyrido[1,2-a][1,4]diazonin]-12′-yl)oxy)methyl ((2R,3S)-3-(phosphonooxy)butan-2-yl) carbonate]	0.0019	23.8	4520 (≈ 6.2 mM)
